Test results taken from patent US20160310510A1, “MEDICINAL COSMETIC LIPOATROPHY” (priority 2009, published 2016).
Entries after “also recorded” stand apart in the source; their conditions may differ.

Legend:
[1] = system: small localized fat deposits on the face; assay: Retrospective series of 56 patients treated with local triamcinolone injections: clinical evaluation, satisfaction, side effects
[2] = cited from earlier work
[3] = system: SQ adipose tissue of the face; assay: Facial MRI before and after triamcinolone injections, thickness of SQ adipose tissue; format: in vivo, human
Experimental: (§1) A series of cases of small localized fat deposits on the face were treated with local triancinolone from March 2005 to October 2008 at a private clinic in Porto Alegre, southern of Brazil. […] They received injections of triamcinolone (Kenalog®-40 Injection) diluted in anesthetic solution (0.02 g/mL Lidocaine plus 0.0004 g/mL Phenilephrine—Novocol®), in different doses and number of applications (up to 3 injections, once a month), according to patient's needs. […] Patients received injections in these fatty areas of the face, through a 0.3 cc BD Ultra Fine II syringe with short needle of minimum 7 or 8 mm long.
One patient was submitted to a facial Magnetic Resonance Imaging (MRI) exam before and after the triamcinolone injections, in order to show the results in terms of the changes in the thickness of subcutaneous tissue. Magnetic resonance imaging examination was performed with 1.5 Tesla Closed Bore Scanner (Magnetom Symphony Maestro Class, Siemens, Erlangen, Germany) with dedicated flexible coils. T1-weighted (600 ms/14 ms, Time Repetition/Time Echo) and T2-weighted (2500 ms/45 ms, TR/TE) turbo spin echo sequences were performed in coronal, axial and sagittal planes, with emphasis on the sagittal plane. An experienced radiologist evaluated the MRI images. The thickness of SQ adipose tissue was measured with Syngo software (Siemens, Erlangen, Germany) in millimetres (mm).

adipocytes = assay: Punch biopsies before and after single treatment, HE histology and morphometry of adipocytes; format: in vivo, human
Experimental: as §1
Another patient was submitted to 3 mm punch biopsies (one on the submental area and another on suprapubical area) before and after single treatment. Histological specimens of SQ tissue were stained with hematoxylin and eosin (HE stain) and […] was also performed in the histological images of before and after treatment samples.

CC1(C)O[C@@H]2C[C@H]3[C@@H]4CCC5=CC(=O)C=C[C@]5(C)[C@@]4(F)[C@@H](O)C[C@]3(C)[C@]2(C(=O)CO)O1 [triamcinolone, Triamcinolone acetonide]
subject satisfaction with the results of the procedure ([1]; 29 subjects (51.78%) who returned for evaluation): very satisfied | physician evaluation of clinical and cosmetic improvement ([1]; 29 subjects who returned for evaluation): good clinical and cosmetic improvement of facial contour | serious / severe adverse events ([1]; Kenalog-40 diluted in lidocaine plus phenilephrine, up to 3 monthly subcutaneous injection sessions): No severe local or systemic side effects were observed; also recorded: did not presented serious adverse events | local side effects observed ([1]; during and after the injections): pain and slight erythema; also recorded: hematomas in variable number and size | number of patients with cosmetic local side effects ([1]; of the treated series): three | concentration with greater risk of cutaneous atrophy ([2]; intralesional injections, Pariser and Murray 1963): above 5 mg/cm^3 | safe dose ([2]; local injections): less than 0.15 mg/kg | reduction of the thickness of the study area of facial fat (MRI) ([3]; after single session of injections, FIGS. 3 and 4): 27.3% | thickness of the study area of facial fat after treatment (MRI) ([3]; after single session, before treatment 1.1 cm): 0.8 cm | reduction of the fat thickness showed by MRI ([3]; mandibular area): 37.5% | fat thickness after treatment (MRI) ([3]; mandibular area, before treatment 0.8 cm): 0.5 cm | reduction of the fat thickness showed by MRI ([3]; submental area): 33.3% | fat thickness after treatment (MRI) ([3]; submental area, before treatment 0.6 cm): 0.4 cm | reduction in the volume of adipocytes in the sites of the injections (histological analysis) (adipocytes; before and after single treatment biopsies): about 30% | average number of adipocytes observed in the optical field at the same magnification (adipocytes; suprapubical area biopsy, one month after a single injection, before treatment 4): 7 adipocytes per field | average diameter of the adipocytes (adipocytes; suprapubical area biopsy, one month after a single injection, before treatment 190): 153 pixels | average area of the adipocytes (adipocytes; suprapubical area biopsy, one month after a single injection, before treatment 31661): 21705 pixels
